Data published in US11708348B2, “Protease inhibitors for treatment of coronavirus infections” (The Scripps Research Institute, priority 2021, dated 2023).
Where two headings read alike, the source gives them in different places.

System: SARS-CoV-2 strain USA-WA1/2020
Experiment: microbe, parasite or virus in culture
Type: cell-based
Conditions: Severe acute respiratory syndrome coronavirus 2, HeLa-ACE2, 24 h, HeLa-ACE2 cells, SARS-CoV-2 infection, 24 h, read-out: EC50, uM (Hela)

Compound | EC50 | EC50 (class symbols) | other results
CC(C)(C)NC(=O)C(=O)N[C@@H](CC1CC1)C(=O)N[C@@H](C[C@@H]1CCNC1=O)C(=O)COC(F)(F)F [Compound 503, N1-(tert-butyl)-N2-((S)-3-cyclopropyl-1-oxo-1-(((S)-3-oxo-1-((S)-2-oxopyrrolidin-3-yl)-4-(trifluoromethoxy)butan-2-yl)amino)propan-2-yl)oxalamide] | < 0.05 µM |  | 
CN[C@H](CC(C)C)C(=O)N1CC2(CC2)C[C@H]1C(=O)N[C@@H](C[C@@H]1CCNC1=O)C(=O)COC(F)(F)F [Compound 660, (S)-5-(methyl-D-leucyl)-N-((S)-3-oxo-1-((S)-2-oxopyrrolidin-3-yl)-4-(trifluoromethoxy)butan-2-yl)-5-azaspiro[2.4]heptane-6-carboxamide] | 0.05 to 0.2 µM |  | 
CC1(NC(=O)C(=O)N2C[C@@H]3CCC[C@@H]3[C@H]2C(=O)N[C@H](C[C@@H]2CCNC2=O)C(=O)COC(F)(F)F)CC1 [Compound 495, (1S,3aR,6aS)-2-(2-((1-methylcyclopropyl)-amino)-2-oxoacetyl)-N-((R)-3-oxo-1-((S)-2-oxopyrrolidin-3-yl)-4-(trifluoromethoxy)butan-2-yl)octahydrocyclo-penta[c]pyrrole-1-carboxamide] |  |  | EC50 (given as bound): > 1 µM
CC1(C)[C@@H]2[C@@H](C(=O)N[C@@H](C[C@@H]3CCNC3=O)C(=O)COC(F)(F)F)N(C(=O)[C@@H](O)CC3CC3)C[C@@H]21 [Compound 394, (1R,2S,5S)-3-((S)-3-cyclopropyl-2-hydroxypropanoyl)-6,6-dimethyl-N-((S)-3-oxo-1-((S)-2-oxopyrrolidin-3-yl)-4-(trifluoromethoxy)butan-2-yl)-3-azabicyclo[3.1.0] hexane-2-carboxamide] |  | < 0.05 µM | 
CC1(NC(=O)C(=O)N2CC3(CCC3)C[C@H]2C(=O)N[C@@H](C[C@@H]2CCNC2=O)C(=O)COC(F)(F)F)CC1 [Compound 558, (S)-6-(2-((l-methylcyclopropyl)-amino)-2-oxoacetyl)-N-((S)-3-oxo-1-((S)-2-oxopyrrolidin-3-yl)-4-(trifluoromethoxy)butan-2-yl)-6-azaspiro[3.4]octane-7-carboxamide] |  |  | EC50 (given as bound): > 1 µM
C[C@H](C(=O)N1C[C@H]2[C@@H]([C@H]1C(=O)N[C@@H](C[C@@H]1CCNC1=O)C(=O)COC(F)(F)F)C2(C)C)c1ccccc1 [Compound 629, (1R,2S,5S)-6,6-dimethyl-N-((S)-3-oxo-1-((S)-2-oxopyrrolidin-3-yl)-4-(trifluoromethoxy)butan-2-yl)-3-((S)-2-phenylpropanoyl)-3-azabicyclo[3.1.0]hexane-2-carboxamide] | < 0.05 µM |  | 
[2H]C([2H])([2H])C([2H])([2H])CCCC(=O)N1CC2(CC2)C[C@H]1C(=O)N[C@@H](C[C@@H]1CCNC1=O)C(=O)COC(F)(F)F [Compound 755, (S)-5-(hexanoyl-5,5,6,6,6-d5)-N-((S)-3-oxo-1-((S)-2-oxopyrrolidin-3-yl)-4-(trifluoromethoxy)butan-2-yl)-5-azaspiro[2.4]heptane-6-carboxamide] | < 0.05 µM |  | 
CCCCCC(=O)N1CC2(CC2)C[C@H]1C(=O)N[C@@H](C[C@@H]1CCNC1=O)C(=O)COC(F)(F)F [Compound 708, (S)-5-hexanoyl-N-((S)-3-oxo-1-((S)-2-oxopyrrolidin-3-yl)-4-(trifluoromethoxy)butan-2-yl)-5-azaspiro[2.4]heptane-6-carboxamide] | 0.05 to 0.2 µM |  | 
CC(C)C[C@H](NC(=O)C(=O)Nc1ccccc1)C(=O)N[C@@H](C[C@@H]1CCNC1=O)C(=O)COC(F)(F)F [Compound 122, N1-((S)-4-methyl-1-oxo-1-(((S)-3-oxo-1-((S)-2-oxopyrrolidin-3-yl)-4-(trifluoromethoxy)butan-2-yl)amino)pentan-2-yl)-N2-phenyloxalamide] |  | < 0.05 µM | 
CC(C)[C@@H](O)C(=O)N1[C@H](C(=O)N[C@@H](C[C@@H]2CCNC2=O)C(=O)COC(F)(F)F)C[C@@]2(C)C[C@@H]12 [Compound 452, (1R,3S,5R)-2-((R)-2-hydroxy-3-methylbutanoyl)-5-methyl-N-((S)-3-oxo-1-((S)-2-oxopyrrolidin-3-yl)-4-(trifluoromethoxy)butan-2-yl)-2-azabicyclo[3.1.0]hexane-3-carboxamide] | 0.05 to 0.2 µM |  | 
O=C1NCC[C@H]1C[C@H](NC(=O)[C@@H]1CC2(CC2)CN1C(=O)c1cc2cccc(Cl)c2[nH]1)C(=O)COC(F)(F)F [Compound 663, (S)-5-(7-chloro-1H-indole-2-carbonyl)-N-((S)-3-oxo-1-((S)-2-oxopyrrolidin-3-yl)-4-(trifluoromethoxy)butan-2-yl)-5-azaspiro[2.4]heptane-6-carboxamide] | < 0.05 µM |  | 
CC(C)(C)NC(=O)C(=O)N1CC2(CC1C(=O)N[C@@H](C[C@@H]1CCNC1=O)C(=O)COC(F)(F)F)CC(F)(F)C2 (stereo partly drawn) [Compound 508, 6-(2-(tert-butylamino)-2-oxoacetyl)-2,2-difluoro-N-((S)-3-oxo-1-((S)-2-oxopyrrolidin-3-yl)-4-(trifluoromethoxy)butan-2-yl)-6-azaspiro[3.4]octane-7-carboxamide] | 0.05 to 0.2 µM |  | 
O=C(Nc1ccccc1Cc1ccccc1)C(=O)N[C@@H](CC1CCCCC1)C(=O)N[C@@H](C[C@@H]1CCNC1=O)C(=O)COc1c(F)c(F)cc(F)c1F [Compound 111, N1-(2-benzylphenyl)-N2-((S)-3-cyclohexyl-1-oxo-1-(((S)-3-oxo-1-((S)-2-oxopyrrolidin-3-yl)-4-(2,3,5,6-tetrafluorophenoxy)butan-2-yl)amino)propan-2-yl)oxalamide] |  | 0.05 to 0.2 µM | 
CC(C)C[C@@H](O)C(=O)N1CCCC[C@H]1C(=O)N[C@@H](C[C@@H]1CCNC1=O)C(=O)COC(F)(F)F [Compound 636, (S)-1-((R)-2-hydroxy-4-methylpentanoyl)-N-((S)-3-oxo-1-((S)-2-oxopyrrolidin-3-yl)-4-(trifluoromethoxy)butan-2-yl)piperidine-2-carboxamide] | 0.05 to 0.2 µM |  | 
CC(C)C[C@H](NC(=O)C(=O)NC1CC2(COC2)C1)C(=O)N[C@@H](C[C@@H]1CCNC1=O)C(=O)COC(F)(F)F [Compound 240, N1-((S)-4-methyl-1-oxo-1-(((S)-3-oxo-1-((S)-2-oxopyrrolidin-3-yl)-4-(trifluoromethoxy)butan-2-yl)amino)pentan-2-yl)-N2-(2-oxaspiro[3.3]heptan-6-yl)oxalamide] |  | 0.05 to 0.2 µM | 
CC(C)C[C@H](NC(=O)c1cc2cccnc2[nH]1)C(=O)N[C@@H](C[C@@H]1CCNC1=O)C(=O)COC(F)(F)F [Compound 194, N-((S)-4-methyl-1-oxo-1-(((S)-3-oxo-1-((S)-2-oxopyrrolidin-3-yl)-4-(trifluoromethoxy)butan-2-yl)amino)pentan-2-yl)-1H-pyrrolo[2,3-b]pyridine-2-carboxamide] |  | < 0.05 µM | 
CC(C)C[C@H](NC(=O)Cc1cccc(Cl)c1)C(=O)N[C@@H](C[C@@H]1CCNC1=O)C(=O)COc1c(F)c(F)cc(F)c1F [Compound 144, (S)-2-(2-(3-chlorophenyl)acetamido)-4-methyl-N—((S)-3-oxo-1-((S)-2-oxopyrrolidin-3-yl)-4-(2,3,5,6-tetrafluorophenoxy)butan-2-yl)pentanamide] |  |  | EC50 (cells given as a bound): > 1 µM
CC1(C)[C@@H]2[C@@H](C(=O)N[C@@H](C[C@@H]3CCNC3=O)C(=O)COC(F)(F)F)N(C(=O)C(=O)NCC(F)F)C[C@@H]21 [Compound 516, (1R,2S,5S)-3-(2-((2,2-difluoroethyl)amino)-2-oxoacetyl)-6,6-dimethyl-N-((S)-3-oxo-1-((S)-2-oxopyrrolidin-3-yl)-4-(trifluoromethoxy)butan-2-yl)-3-azabicyclo-[3.1.0]hexane-2-carboxamide] | 0.05 to 0.2 µM |  | 
COc1ccc(NC(=O)C(=O)N[C@@H](CC(C)C)C(=O)N[C@@H](C[C@@H]2CCNC2=O)C(=O)COc2c(F)c(F)cc(F)c2F)cc1 [Compound 121, N1-(4-methoxyphenyl)-N2-((S)-4-methyl-1-oxo-1-(((S)-3-oxo-1-((S)-2-oxopyrrolidin-3-yl)-4-(2,3,5,6-tetrafluorophenoxy)butan-2-yl)amino)pentan-2-yl)oxalamide] |  | < 0.05 µM | 
O=C(Nc1ccccc1Cl)C(=O)NC(CC1CCOCC1)C(=O)N[C@@H](C[C@@H]1CCNC1=O)C(=O)COc1c(F)c(F)cc(F)c1F (stereo partly drawn) [Compound 134, N1-(2-chlorophenyl)-N2-(1-oxo-1-(((S)-3-oxo-1-((S)-2-oxopyrrolidin-3-yl)-4-(2,3,5,6-tetrafluorophenoxy)butan-2-yl)amino)-3-(tetrahydro-2H-pyran-4-yl)propan-2-yl)oxalamide] |  | < 0.05 µM | 
CC(F)(F)CCC(=O)N1CC2(CC2)C[C@@H]1C(=O)N[C@H](C[C@@H]1CCNC1=O)C(=O)COC(F)(F)F [Compound 750, (R)-5-(4,4-difluoropentanoyl)-N-((R)-3-oxo-1-((S)-2-oxopyrrolidin-3-yl)-4-(trifluoromethoxy)butan-2-yl)-5-azaspiro[2.4]heptane-6-carboxamide] | 0.05 to 0.2 µM |  | 
CC(C)CC[C@H](NC(=O)c1cc2cc(F)ccc2[nH]1)C(=O)N[C@@H](C[C@@H]1CCNC1=O)C(=O)COc1c(F)c(F)cc(F)c1F [Compound 11, 5-fluoro-N-((S)-5-methyl-1-oxo-1-(((S)-3-oxo-1-((S)-2-oxopyrrolidin-3-yl)-4-(2,3,5,6-tetrafluorophenoxy)butan-2-yl)amino)hexan-2-yl)-1H-indole-2-carboxamide] |  | 0.2 to 0.5 µM | 
CC(C)(O)CCC(=O)N1CC2(CC2)C[C@H]1C(=O)N[C@@H](C[C@@H]1CCNC1=O)C(=O)COC(F)(F)F [Compound 430, (S)-5-(4-hydroxy-4-methylpentanoyl)-N-((S)-3-oxo-1-((S)-2-oxopyrrolidin-3-yl)-4-(trifluoromethoxy)butan-2-yl)-5-azaspiro[2.4]heptane-6-carboxamide] | 0.2 to 0.5 µM |  | 
